Experiment [1] relates to .221A2.1 peptide-loaded target cells and cells expressing endogenous antigen. Description: Primary in vitro CTL induction with peptide-pulsed DC, CTL lytic activity by 51Cr release. The format is cell-based, human. The settings on record: immunogenicity, positive/tested; for A2 native: CTL recognition of native (wild-type) target; for A2 peptide: CTL recognition of the peptide. The protocol:
Testing was performed using the following methodology:
Cells that express an antigen of interest, or transfectants comprising the gene encoding the antigen of interest, can be used as target cells to test the ability of peptide-specific CTLs to recognize endogenous antigen.
The monocytes are purified by plating 10×10^6 PBMC/well in a 6-well plate. After 2 hours at 37° C., the non-adherent cells are removed by gently shaking the plates and aspirating the supernatants. The wells are washed a total of three times with 3 ml RPMI to remove most of the non-adherent and loosely adherent cells. Three ml of complete medium containing 50 ng/ml of GM-CSF and 1,000 U/ml of IL-4 are then added to each well. TNFα is added to the DCs on day 6 at 75 ng/ml and the cells are used for CTL induction cultures on day 7.
Induction of CTL with DC and Peptide: CD8+ T-cells are isolated by positive selection with Dynal imnmunomagnetic beads (Dynabeads® M-450) and the detacha-bead® reagent. Typically about 200-250×10^6 PBMC are processed to obtain 24×10^6 CD8^+T-cells (enough for a 48-well plate culture). Briefly, the PBMCs are thawed in RPMI with 30 μg/ml DNAse, washed once with PBS containing 1% human AB serum and resuspended in PBS/1% AB serum at a concentration of 20×10^6 cells/ml. The magnetic beads are washed 3 times with PBS/AB serum, added to the cells (140 μl beads/20×10^6 cells) and incubated for 1 hour at 4° C. with continuous mixing. The beads and cells are washed 4× with PBS/AB serum to remove the nonadherent cells and resuspended at 100×10^6 cells/ml (based on the original cell number) in PBS/AB serum containing 100 μl/ml detacha-bead® reagent and 30 μg/ml DNAse. The mixture is incubated for 1 hour at room temperature with continuous mixing. The beads are washed again with PBS/AB/DNAse to collect the CD8+ T-cells. The DC are collected and centrifuged at 1300 rpm for 5-7 minutes, washed once with PBS with 1% BSA, counted and pulsed with 40 μg/ml of peptide at a cell concentration of 1-2×10^6/ml in the presence of 3 μg/ml β2-microglobulin for 4 hours at 20° C. The DC are then irradiated (4,200 rads), washed 1 time with medium and counted again.
Setting up induction cultures: 0.25 ml cytokine-generated DC (@1×10^5 cells/ml) are co-cultured with 0.25 ml of CD8+ T-cells (@2×10^6 cell/ml) in each well of a 48-well plate in the presence of 10 ng/ml of IL-7. Recombinant human IL10 is added the next day at a final concentration of 10 ng/ml and rhuman IL2 is added 48 hours later at 10 IU/mL.
Restimulation of the induction cultures with peptide-pulsed adherent cells: Seven and fourteen days after the primary induction the cells are restimulated with peptide-pulsed adherent cells. The PBMCS are thawed and washed twice with RPMI and DNAse. The cells are resuspended at 5×10^6 cells/ml and irradiated at ˜4200 rads. The PBMCs are plated at 2×10^6 in 0.5 ml complete medium per well and incubated for 2 hours at 37° C. The plates are washed twice with RPMI by tapping the plate gently to remove the nonadherent cells and the adherent cells pulsed with 10 μg/ml of peptide in the presence of 3 μg/ml β2 microglobulin in 0.25 ml RPMI/5% AB per well for 2 hours at 37° C. Peptide solution from each well is aspirated and the wells are washed once with RPMI. Most of the media is aspirated from the induction cultures (CD8+ cells) and brought to 0.5 ml with fresh media. The cells are then transferred to the wells containing the peptide-pulsed adherent cells. Twenty four hours later rhuman IL10 is added at a final concentration of 10 ng/ml and rhuman IL2 is added the next day and again 2-3 days later at 50 IU/ml (Tsai et al., Critical Reviews in Immunology 18(1-2):65-75, 1998). Seven days later the cultures are assayed for CTL activity in a ^51Cr release assay. In some experiments the cultures are assayed for peptide-specific recognition in the in situ IFNγ ELISA at the time of the second restimulation followed by assay of endogenous recognition 7 days later. […]

The target of the next experiment is HLA-A*0201 (Homo sapiens, UniProt P04439, D140Y/D185E/D98H/E176V/E277Q/G131W/G231S/I119V/I121R/I166T/I218V/L300P/L318F/N151K/N90K/P208A/P217A/Q86G/Q94H/R138H/R169H/T345S). Description: HLA class I binding assay, purified HLA, inhibition of 125I-labelled probe peptide. The note with it: Table XXII group headings ≦ 200 nM / > 200 nM, binding to HLA-A*0201.

Like-named read-outs stand apart in the source and are kept apart here.

`CSCC[C@H](NC(=O)[C@H](CC(C)C)NC(=O)[C@@H](N)CC(=O)O)C(=O)N[C@@H](CC(C)C)C(=O)N[C@@H](CC(C)C)C(=O)N[C@@H](CCCNC(=N)N)C(=O)N[C@@H](CC(C)C)C(=O)N[C@@H](CO)C(=O)N[C@@H](CCC(=O)O)C(=O)N1CCC[C@H]1C(=O)N[C@H](C(=O)O)C(C)C` [Peptide 1419.13]: in experiment [1], the A2 native was 2/2 and the A2 peptide is 2/2.

Turning to `CC(C)C[C@H](NC(=O)[C@@H](N)Cc1ccccc1)C(=O)N[C@@H](CC(N)=O)C(=O)N[C@@H](CCC(=O)O)C(=O)N[C@@H](CO)C(=O)N[C@@H](Cc1ccc(O)cc1)C(=O)N[C@@H](CCCCN)C(=O)N[C@@H](Cc1c[nH]cn1)C(=O)N[C@@H](CCC(=O)O)C(=O)N[C@@H](CCC(N)=O)C(=O)N[C@H](C(=O)O)C(C)C` [PAP.92], at HLA-A*0201 (read-out: Binding affinity), the IC50 was not above 200 nM.

For `CSCC[C@H](NC(=O)CN)C(=O)N1CCC[C@H]1C(=O)N[C@@H](CCC(=O)O)C(=O)NCC(=O)N[C@@H](CC(=O)O)C(=O)N[C@@H](CC(C)C)C(=O)N[C@H](C(=O)N[C@@H](Cc1ccc(O)cc1)C(=O)N[C@H](C(=O)O)C(C)C)C(C)C` [Peptide 1129.04], the A2 peptide in experiment [1] is 0/1.

For the compound `CC[C@H](C)[C@H](NC(=O)[C@H](CO)NC(=O)[C@H](CC(C)C)NC(=O)[C@H](CC(C)C)NC(=O)[C@@H](N)CC(C)C)C(=O)N[C@@H](C)C(=O)N[C@@H](CC(C)C)C(=O)N[C@@H](CO)C(=O)N[C@H](C(=O)O)C(C)C` [Peptide 1418.13], in experiment [1], the A2 native is on record as 2/2 and the A2 peptide is reported as 2/2.

`CC(C)C[C@H](NC(=O)[C@H](Cc1ccccc1)NC(=O)[C@H](Cc1ccccc1)NC(=O)CNC(=O)CNC(=O)[C@H](C)NC(=O)[C@H](CC(C)C)NC(=O)[C@@H](NC(=O)[C@@H](N)CC(C)C)C(C)C)C(=O)O` [PSM.26]: the IC50 at HLA-A*0201 (read-out: Binding affinity) was not above 200 nM.

For `CC(C)C[C@H](NC(=O)[C@@H](N)CCCCN)C(=O)NCC(=O)N[C@@H](CO)C(=O)NCC(=O)N[C@@H](CC(N)=O)C(=O)N[C@@H](CC(=O)O)C(=O)N[C@@H](Cc1ccccc1)C(=O)N[C@@H](CCC(=O)O)C(=O)N[C@H](C(=O)O)C(C)C` [PSM.514], at HLA-A*0201 (read-out: Binding affinity), the IC50 was more than 200 nM.

Take `CC[C@H](C)[C@H](N)C(=O)N[C@@H](CC(C)C)C(=O)N[C@@H](CC(C)C)C(=O)N[C@@H](Cc1c[nH]c2ccccc12)C(=O)N[C@@H](CCC(N)=O)C(=O)N1CCC[C@H]1C(=O)N[C@H](C(=O)N1CCC[C@H]1C(=O)N[C@H](C(=O)O)C(C)C)[C@@H](C)CC` [Peptide 1044.04]: the A2 peptide in experiment [1] is reported as 5/5.

Consider `CC(C)C[C@H](NC(=O)[C@H](C)N)C(=O)NCC(=O)N[C@H](C(=O)N[C@H](C(=O)N[C@@H](CS)C(=O)N[C@@H](Cc1ccc(O)cc1)C(=O)N[C@@H](C)C(=O)O)[C@@H](C)O)[C@@H](C)O` [Peptide 1419.01], for which the A2 peptide in experiment [1] is 1/2.

As for `CSCC[C@H](NC(=O)[C@@H](N)CC(C)C)C(=O)N[C@@H](Cc1ccc(O)cc1)C(=O)N[C@@H](CO)C(=O)N[C@@H](CC(C)C)C(=O)N[C@H](C(=O)N[C@@H](Cc1c[nH]cn1)C(=O)N[C@@H](CC(N)=O)C(=O)N[C@@H](CC(C)C)C(=O)O)C(C)C` [Peptide 1126.14], the A2 peptide in experiment [1] is recorded as 3/3.

As to `CSCC[C@H](NC(=O)[C@H](CC(C)C)NC(=O)[C@H](CCC(N)=O)NC(=O)[C@H](CC(=O)O)NC(=O)[C@H](CC(N)=O)NC(=O)[C@H](CCSC)NC(=O)[C@H](CCSC)NC(=O)[C@@H](N)CCCNC(=N)N)C(=O)N[C@@H](Cc1ccccc1)C(=O)N[C@@H](CC(C)C)C(=O)O` [Peptide 1126.06], the A2 peptide in experiment [1] is on record as 1/1.

Turning to `CC(C)C[C@H](NC(=O)[C@H](CC(=O)O)NC(=O)[C@@H](NC(=O)[C@H](CS)NC(=O)[C@H](CCC(N)=O)NC(=O)[C@H](CC(C)C)NC(=O)[C@@H](N)CCCCN)C(C)C)C(=O)N[C@@H](Cc1c[nH]cn1)C(=O)N[C@H](C(=O)N[C@H](C(=O)O)C(C)C)C(C)C` [Peptide 1419.24], in experiment [1], the A2 native is recorded as 1/2 and the A2 peptide is 1/2.

For the compound `CC[C@H](C)[C@H](NC(=O)[C@H](Cc1ccccc1)NC(=O)[C@H](C)NC(=O)[C@H](CCCNC(=N)N)NC(=O)[C@H](CCC(=O)O)NC(=O)[C@H](CC(C)C)NC(=O)[C@H](Cc1ccccc1)NC(=O)[C@H](CCSC)NC(=O)[C@H](CC(C)C)NC(=O)[C@@H](N)CCC(N)=O)C(=O)O` [PSM.667], on HLA-A*0201 (read-out: Binding affinity), the IC50 was not above 200 nM.

For `CC(C)C[C@H](NC(=O)[C@H](Cc1ccccc1)NC(=O)[C@H](Cc1ccccc1)NC(=O)CNC(=O)CNC(=O)[C@H](C)NC(=O)[C@H](CC(C)C)NC(=O)[C@@H](NC(=O)[C@H](CC(C)C)NC(=O)[C@H](C)N)C(C)C)C(=O)O` [PSM.25], on HLA-A*0201 (read-out: Binding affinity), the IC50 was more than 200 nM.

Take `CC(C)C[C@H](NC(=O)[C@@H](N)CC(C)C)C(=O)N[C@@H](Cc1c[nH]cn1)C(=O)N[C@@H](CCC(=O)O)C(=O)N[C@H](C(=O)N[C@@H](CC(=O)O)C(=O)N[C@@H](CO)C(=O)N[C@@H](C)C(=O)N[C@H](C(=O)O)C(C)C)[C@@H](C)O` [PSM.4]: the IC50 on HLA-A*0201 (read-out: Binding affinity) is more than 200 nM.

Turning to `CC[C@H](C)[C@H](NC(=O)[C@H](Cc1ccc(O)cc1)NC(=O)[C@H](C)NC(=O)[C@@H](NC(=O)CNC(=O)[C@H](CCCNC(=N)N)NC(=O)[C@H](CCC(=O)O)NC(=O)[C@H](CCC(N)=O)NC(=O)[C@H](CC(C)C)NC(=O)[C@@H](N)CC(C)C)C(C)C)C(=O)O` [Peptide 1129.01], in experiment [1], the A2 peptide is on record as 3/3.

Compound `CC(C)C[C@H](NC(=O)[C@H](CC(C)C)NC(=O)CNC(=O)[C@H](CC(N)=O)NC(=O)[C@H](Cc1ccc(O)cc1)NC(=O)[C@@H](NC(=O)[C@H](CC(=O)O)NC(=O)[C@H](CC(C)C)NC(=O)[C@H](C)N)C(C)C)C(=O)O` [PAP.299] showed an IC50 at HLA-A*0201 (Binding affinity) not above 200 nM.

In the case of `CSCC[C@H](NC(=O)[C@H](C)NC(=O)[C@H](CO)NC(=O)[C@H](CCSC)NC(=O)[C@H](CC(C)C)NC(=O)[C@@H](N)[C@@H](C)O)C(=O)N[C@H](C(=O)N[C@@H](CC(N)=O)C(=O)N[C@@H](CC(C)C)C(=O)O)[C@@H](C)O` [Peptide 1177.01], the A2 peptide in experiment [1] is reported as 2/2.

Take `CC(C)C[C@H](NC(=O)[C@@H](N)C(C)C)C(=O)N[C@H](C(=O)N[C@@H](Cc1c[nH]cn1)C(=O)N1CCC[C@H]1C(=O)N[C@@H](CCC(N)=O)C(=O)N[C@@H](Cc1c[nH]c2ccccc12)C(=O)N[C@H](C(=O)N[C@@H](CC(C)C)C(=O)N[C@H](C(=O)N[C@H](C(=O)O)C(C)C)[C@@H](C)O)C(C)C)C(C)C` [Peptide 1419.11]: in experiment [1], the A2 native is listed as 2/2 and the A2 peptide was 2/2.

On to `CC(C)C[C@H](NC(=O)CN)C(=O)N[C@@H](CC(C)C)C(=O)NCC(=O)N[C@@H](CO)C(=O)N[C@H](C(=O)N[C@@H](CCC(=O)O)C(=O)N[C@@H](Cc1c[nH]c2ccccc12)C(=O)N[C@@H](C)C(=O)O)[C@@H](C)O` [PSM.427], for which, at HLA-A*0201 (read-out: Binding affinity), the IC50 is more than 200 nM.

For `CC(C)C[C@H](NC(=O)[C@H](CO)NC(=O)[C@H](CC(C)C)NC(=O)[C@H](CO)NC(=O)[C@H](C)NC(=O)[C@H](C)NC(=O)[C@H](CCCNC(=N)N)NC(=O)[C@H](C)NC(=O)[C@H](CC(C)C)NC(=O)[C@H](CC(C)C)NC(=O)[C@@H](N)CC(C)C)C(=O)O` [PAP.6], the IC50 on HLA-A*0201 (read-out: Binding affinity) is not above 200 nM.

The values are drawn from patent US20040037843A1, “Inducing cellular immune responses to prostate cancer antigens using peptide and nucleic acid compositions” (priority 2003, published 2004).
